Laboratory results published in ChEMBL document CHEMBL4145553, “Design, synthesis, and biological evaluation of novel amide and hydrazide based thioether analogs targeting Histone deacteylase (HDAC) enzymes” (Eur J Med Chem, 2018).
Calls of active or inactive are those of the source. The rule behind the calls is not given here.

Experiments:
SNB-75 [1] = assay: Growth inhibition of human SNB75 cells assessed as cell growth at 10^-4 M incubated for 48 hrs by sulforhodamine B assay relative to control; type: functional; settings: SNB-75, 48 h, read-out: Activity
UACC-62 [2] = assay: Growth inhibition of human UACC62 cells assessed as cell growth at 10^-6 M incubated for 48 hrs by sulforhodamine B assay relative to control; type: functional; settings: UACC-62, 48 h, read-out: Activity
MCF7 [3] = assay: Growth inhibition of human MCF7 cells assessed as cell growth at 10^-4 M incubated for 48 hrs by sulforhodamine B assay relative to control; type: functional; settings: MCF7, 48 h, read-out: Activity
OVCAR-3 = assay: Growth inhibition of human OVCAR3 cells assessed as cell growth at 10^-4 M incubated for 48 hrs by sulforhodamine B assay relative to control; type: functional; settings: OVCAR-3, 48 h, read-out: Activity
MCF7 [4] = assay: Growth inhibition of human MCF7 cells assessed as cell growth at 10^-5 M incubated for 48 hrs by sulforhodamine B assay relative to control; type: functional; settings: MCF7, 48 h, read-out: Activity
HL-60 [5] = assay: Downregulation of HDAC8 mRNA expression in human HL60 cells by qRT-PCR method; type: functional, cell-based
MDA-MB-435 = assay: Antiproliferative activity against human MDA-MB-435 cells after 24 hrs by MTT assay; type: functional
SW-620 [6] = assay: Growth inhibition of human SW620 cells assessed as cell growth at 10^-5 M incubated for 48 hrs by sulforhodamine B assay relative to control; type: functional; settings: SW-620, 48 h, read-out: Activity
TK-10 [7] = assay: Growth inhibition of human TK10 cells assessed as cell growth at 10^-5 M incubated for 48 hrs by sulforhodamine B assay relative to control; type: functional; settings: TK-10, 48 h, read-out: Activity
SK-MEL-2 [8] = assay: Growth inhibition of human SK-MEL-2 cells incubated for 48 hrs by sulforhodamine B assay; type: functional; settings: SK-MEL-2, 48 h
SW-620 [9] = assay: Growth inhibition of human SW620 cells assessed as cell growth at 10^-4 M incubated for 48 hrs by sulforhodamine B assay relative to control; type: functional; settings: SW-620, 48 h, read-out: Activity
IGROV-1 = assay: Growth inhibition of human IGROV1 cells assessed as cell growth at 10^-8 M incubated for 48 hrs by sulforhodamine B assay relative to control; type: functional; settings: IGROV-1, 48 h, read-out: Activity
HT-29 [10] = assay: Growth inhibition of human HT-29 cells assessed as cell growth at 10^-7 M incubated for 48 hrs by sulforhodamine B assay relative to control; type: functional; settings: HT-29, 48 h, read-out: Activity
UACC-257 = assay: Growth inhibition of human UACC257 cells assessed as cell growth at 10^-7 M incubated for 48 hrs by sulforhodamine B assay relative to control; type: functional; settings: UACC-257, 48 h, read-out: Activity
HT-29 [11] = assay: Growth inhibition of human HT-29 cells assessed as cell growth at 10^-4 M incubated for 48 hrs by sulforhodamine B assay relative to control; type: functional; settings: HT-29, 48 h, read-out: Activity
KM12 = assay: Growth inhibition of human KM12 cells incubated for 48 hrs by sulforhodamine B assay; type: functional; settings: KM12, 48 h
SK-MEL-2 [12] = assay: Growth inhibition of human SK-MEL-2 cells assessed as cell growth at 10^-4 M incubated for 48 hrs by sulforhodamine B assay relative to control; type: functional; settings: SK-MEL-2, 48 h, read-out: Activity
SNB-19 = assay: Growth inhibition of human SNB19 cells assessed as cell growth at 10^-8 M incubated for 48 hrs by sulforhodamine B assay relative to control; type: functional; settings: SNB-19, 48 h, read-out: Activity
T47D = assay: Growth inhibition of human T47D cells incubated for 48 hrs by sulforhodamine B assay; type: functional
K562 = assay: Growth inhibition of human K562 cells assessed as cell growth at 10^-5 M incubated for 48 hrs by sulforhodamine B assay relative to control; type: functional; settings: K562, 48 h, read-out: Activity
HL-60 [13] = assay: Induction of apoptosis in human HL60 cells assessed as late apoptotic cells by propidium iodide/Annexin V staining based flow cytometry (reference value: 0.54%); type: functional
DU-145 = assay: Growth inhibition of human DU145 cells incubated for 48 hrs by sulforhodamine B assay; type: functional; settings: DU-145, 48 h
NCI-H322M = assay: Growth inhibition of human NCI-H322M cells assessed as cell growth at 10^-8 M incubated for 48 hrs by sulforhodamine B assay relative to control; type: functional; settings: read-out: Activity
Histone deacetylase 2 = Histone deacetylase 2 (Homo sapiens, UniProt Q92769); assay: Inhibition of human HDAC2 by ELISA
NCI-H460 = assay: Growth inhibition of human NCI-H460 cells assessed as cell growth at 10^-8 M incubated for 48 hrs by sulforhodamine B assay relative to control; type: functional; settings: NCI-H460, 48 h, read-out: Activity
A498 = assay: Growth inhibition of human A498 cells assessed as cell growth at 10^-7 M incubated for 48 hrs by sulforhodamine B assay relative to control; type: functional; settings: A498, 48 h, read-out: Activity
UACC-62 [14] = assay: Growth inhibition of human UACC62 cells incubated for 48 hrs by sulforhodamine B assay; type: functional; settings: UACC-62, 48 h
SNB-75 [15] = assay: Growth inhibition of human SNB75 cells incubated for 48 hrs by sulforhodamine B assay; type: functional; settings: SNB-75, 48 h
TK-10 [16] = assay: Growth inhibition of human TK10 cells incubated for 48 hrs by sulforhodamine B assay; type: functional; settings: TK-10, 48 h
[17] = read-out: LC50 (the source's name)
[18] = read-out: pLC50 (the source's name) (converted)

Chain of Histone deacetylase 2 (Q92769 whole entry): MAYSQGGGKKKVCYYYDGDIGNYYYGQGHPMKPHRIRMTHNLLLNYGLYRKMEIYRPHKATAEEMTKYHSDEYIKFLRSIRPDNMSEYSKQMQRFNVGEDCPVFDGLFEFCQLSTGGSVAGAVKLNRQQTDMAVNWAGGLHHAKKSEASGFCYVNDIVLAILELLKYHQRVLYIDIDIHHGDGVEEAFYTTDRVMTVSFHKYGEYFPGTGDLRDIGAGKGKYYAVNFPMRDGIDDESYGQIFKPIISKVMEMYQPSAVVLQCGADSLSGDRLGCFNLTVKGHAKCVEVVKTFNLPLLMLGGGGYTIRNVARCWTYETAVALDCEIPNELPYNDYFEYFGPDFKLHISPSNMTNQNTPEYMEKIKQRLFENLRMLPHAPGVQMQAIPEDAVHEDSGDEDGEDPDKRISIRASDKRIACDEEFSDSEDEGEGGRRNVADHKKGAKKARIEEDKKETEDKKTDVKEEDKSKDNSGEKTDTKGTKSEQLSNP

SMILES: CCS/C(Nc1ccccc1)=C(\C#N)C(=O)Nc1ccc(OC)cc1
- growth at 100 µM (SNB-75 [1]): -22%
- growth at 1 µM (UACC-62 [2]): 71%
- growth at 100 µM (MCF7 [3]): 6%
- growth at 100 µM (OVCAR-3): -15%
- growth at 10 µM (MCF7 [4]): 15%
- Activity (HL-60 [5]): Active
- Activity (MDA-MB-435): Dose-dependent effect
- GI50 (MDA-MB-435; Homo sapiens, MDA-MB-435, 24 h): 0.37 µM
- growth at 10 µM (SW-620 [6]): 21%
- growth at 10 µM (TK-10 [7]): 66%
- GI50 (SK-MEL-2 [8]; read-out: GI50): 3.01 µM
- CC50 (SK-MEL-2 [8]; [17]): > 100 µM
- TGI (SK-MEL-2 [8]; read-out: TGI): > 100 µM
- GI50 (SK-MEL-2 [8]; read-out: pGI50 (converted)): 3.02 µM
- CC50 (SK-MEL-2 [8]; [18]): > 100 µM
- TGI (SK-MEL-2 [8]; read-out: pTGI): > 100 µM
- growth at 100 µM (SW-620 [9]): 14%
- growth at 0.01 µM (IGROV-1): 103%
- growth at 0.1 µM (HT-29 [10]): 105%
- growth at 0.1 µM (UACC-257): 95%
- growth at 100 µM (HT-29 [11]): -8%
- GI50 (KM12; read-out: GI50): 2.8 µM
- CC50 (KM12; [17]): > 100 µM
- TGI (KM12; read-out: TGI): > 100 µM
- GI50 (KM12; read-out: pGI50 (converted)): 2.82 µM
- CC50 (KM12; [18]): > 100 µM
- TGI (KM12; read-out: pTGI): > 100 µM
- growth at 100 µM (SK-MEL-2 [12]): 14%
- growth at 0.01 µM (SNB-19): 98%
- GI50 (T47D; read-out: GI50): 4.08 µM
- CC50 (T47D; [17]): > 100 µM
- TGI (T47D; read-out: TGI): > 100 µM
- GI50 (T47D; read-out: pGI50 (converted)): 4.07 µM
- CC50 (T47D; [18]): > 100 µM
- TGI (T47D; read-out: pTGI): > 100 µM
- growth at 10 µM (K562): 12%
- Activity (HL-60 [13]): 7.19%
- GI50 (DU-145; read-out: GI50): 3.48 µM
- CC50 (DU-145; [17]): > 100 µM
- TGI (DU-145; read-out: TGI): 49.8 µM
- GI50 (DU-145; read-out: pGI50 (converted)): 3.47 µM
- CC50 (DU-145; [18]): > 100 µM
- TGI (DU-145; read-out: pTGI (converted)): 50.1 µM
- growth at 0.01 µM (NCI-H322M): 95%
- IC50 (Histone deacetylase 2): 0.032 µM
- growth at 0.01 µM (NCI-H460): 105%
- growth at 0.1 µM (A498): 90%
- GI50 (UACC-62 [14]; read-out: GI50): 2.58 µM
- CC50 (UACC-62 [14]; [17]): > 100 µM
- TGI (UACC-62 [14]; read-out: TGI): > 100 µM
- GI50 (UACC-62 [14]; read-out: pGI50 (converted)): 2.57 µM
- CC50 (UACC-62 [14]; [18]): > 100 µM
- TGI (UACC-62 [14]; read-out: pTGI): > 100 µM
- GI50 (SNB-75 [15]; read-out: GI50): 2.13 µM
- CC50 (SNB-75 [15]; [17]): > 100 µM
- TGI (SNB-75 [15]; read-out: TGI): 7.21 µM
- GI50 (SNB-75 [15]; read-out: pGI50 (converted)): 2.14 µM
- CC50 (SNB-75 [15]; [18]): > 100 µM
- TGI (SNB-75 [15]; read-out: pTGI (converted)): 7.24 µM
- GI50 (TK-10 [16]; read-out: GI50): 24.3 µM
- CC50 (TK-10 [16]; [17]): > 100 µM
- TGI (TK-10 [16]; read-out: TGI): > 100 µM
- GI50 (TK-10 [16]; read-out: pGI50 (converted)): 24.5 µM
- CC50 (TK-10 [16]; [18]): > 100 µM
- TGI (TK-10 [16]; read-out: pTGI): > 100 µM
